Laboratory results taken from patent publication US10590411B2, “Crude biological derivatives competent for nucleic acid detection” (APPLIED BIOSYSTEMS, LLC, priority 2002, dated 2020).

Test system: tissue plasminogen activator (t-PA)
Assay: t-PA mRNA level after PMA treatment, one-step real-time RT-PCR on cell lysate
Type: cell-based
Conditions: HeLa cells, 100 and 10 nM PMA, 24 hours, normalized to 18S rRNA
Experimental: FIG. 3. Illustrates an example of measuring the levels of 18S rRNA and tPA mRNA in HeLa cells that were incubated with different concentrations of PMA by one-step, real-time RT-PCR in the ABI 7700. The cells were processed in 96-well plates using the methods of the invention.
Cells were grown overnight in 0.2 ml DME media with 10% FBS with equal number of cells in each well of a 96-well plate. After an overnight incubation, phorbol myristate acetate (PMA) is added to final concentrations of 100, 10, 1, 0.1, and 0 nM in the growth medium in replicates of eight. The cells were incubated at 37° C. for 24 hours. The 96-well plate and lid were placed on the Packard MultiPROBE® II HT Liquid Handling System from PerkinElmer Life Sciences on the proper deck positions. All proceeding steps were entered into the WinPrep for automation. The growth medium was removed and the cells washed with 1×PBS. A volume of 0.1 ml Cell Lysis Buffer is added to each well. The plate was moved to a heating tile, for example, a tile at 75°, and incubated for 10 minutes. […] The plate was shaken for 2 minutes. PMSF can be used when the heating tile cannot heat the sample to 75° C. to inactivate the proteinase K. Two μl DNase I (2 U/μl) was added to each well and the plate was moved to a 37° C. heating tile. The plate was incubated for 15 minutes while shaking. […] The plate was ready for one-step RT-PCR. […]

## CCCCCCCCCCCCCC(=O)O[C@@H]1[C@@H](C)[C@@]2(O)[C@@H](C=C(CO)C[C@]3(O)C(=O)C(C)=C[C@@H]23)[C@@H]2C(C)(C)[C@]12OC(C)=O [PMA, phorbol myristate acetate]
  stimulation of t-PA: ~29 fold
